Where “and” joins values, the source holds several entries; their conditions need not be identical. Equal values may be shown once. Read-outs that look alike come from different tables or passages of the source. Marks after values point to notes of the source that are not given here.
Tests used:
in vitro = settings: human
[1] = cynomolgus monkey, up to 236 ug/mL
[2] = design: species or system cynomolgus monkeys; settings: cynomolgus monkey, in vivo
Protocol: AR177 plasma HPLC analysis. Blood was taken for plasma analysis of AR177 just prior to, and at 5, 30 and 240 minutes following administration of doses 1 and 12. The plasma fraction was obtained by low speed centrifugation of blood, and stored at −20° C. until analyzed for the AR177 concentration. Plasma AR177 concentrations were assayed using an anion-exchange HPLC method on a Waters HPLC system with a 626 pump, 996 photodiode array detector, 717 autosampler and Millennium system software controlled by an NEC Image 466 computer. Buffer A was 0.1 M Tris base, 20% methanol, pH 12, and Buffer B was 0.1 M Tris base, 1.0 M NaBr, pH12. anion-exchange column tGen-Pak Fax column) was equilibrated at 80% buffer A/20% buffer B for 30 minutes before each HPLC run. Fifty microliters of plasma were analyzed per run. The elusion conditions were: a) five-minute isocratic run at 80% A/20% B, during which the majority of the plasma proteins eluted, b) 30-minute linear gradient to 30% A/70% B during which the AR177 eluted, c) five-minute isocratic run at 30% A/70% B. d) one minute linear gradient to 100% B. e) two- minute run at 100% B for initial column cleanup, and fl two-minute linear gradient to 70% A/30% B for the initial step in the clean-up method for HPLC column clean-up. […]

HIV-2 (ROD, EHO) = assay: HIV-2 infection assay in MT4 cells; assay type: cell-based; settings: read-out: IC50 virus production
[3] = biological target: T1, recombinant RT (HIV-1BH10) (Human immunodeficiency virus type 1 group M subtype B, UniProt P03366); assay: Reverse transcriptase enzyme inhibition assays; assay type: biochemical
T1 construct: Purified recombinant RT (HIV-1BH10) was obtained from the University of Alabama; purchased University of Alabama, Center for AIDS research (obtained from)

U937 = assay type: cell-based, human
Protocol: (§1) Cytotoxicity Analysis. The cytotoxicity of T30177 was assayed as described above. […] The degree of cell proliferation was determined according to the manufacturer's instructions.
(§2) Cytotoxicity Assays. The cytotoxicity of T30177 was determined using several different cell lines and primary human cells as described above. The cytotoxicity profile obtained for log phase growing cells was variable depending upon the cell line used, while the slower growing PBMCs, PBLs, and macrophages all tolerated the compound at concentrations exceeding 100 μM as monitored using the trypan blue exclusion, [^3H]thymidine uptake, or [^3H]leucine uptake techniques.

CEM-SS = assay type: cell-based, human
Protocol: as §1, §2

AA5 = assay type: cell-based, human
Protocol: as §1, §2

CEMx174 = assay type: cell-based, human
Protocol: as §1, §2

MT4 = assay type: cell-based, human
Protocol: as §1, §2

MT2 = assay type: cell-based, human
Protocol: as §1, §2

[4] = Thermal denaturation of oligomer fold (UV, Tm); assay type: physicochemical

Compound `Cc1cn([C@H]2C[C@H](N=[N+]=[N-])[C@@H](CO)O2)c(=O)[nH]c1=O` [AZT, 3′-azido-3′-deoxythymidine] has a CC50 (in vitro) of roughly 10 µM.

For “5′-gtggtgggtgggtgggt-3′ [T30177] (GTGGTGGGTGGGTGGGT; phosphorothioate termini, further chemistry not given here)”, the “complement CH50” value [1] was “no effect”, the IC50 virus-induced cytopathogenicity (Sindbis virus; Sindbis virus) was greater than 200 µg/mL and the “MCC minimum concentration altering normal cell morphology” value (Sindbis virus; Sindbis virus assay) was “≧200 μg/mL”. For the same compound, the IC50 virus-induced cytopathogenicity (Punta Toro virus; Punta Toro virus) was greater than 200 µg/mL, the “MCC minimum concentration altering normal cell morphology” value (Punta Toro virus; Punta Toro virus assay) was greater than 200 μg/mL and the IC50 virus-induced cytopathogenicity (Tacaribe) was greater than 50 µg/mL. For the same compound, the “MCC minimum concentration altering normal cell morphology” value (Tacaribe) was greater than 50 μg/mL, the IC50 virus-induced cytopathogenicity (Influenza A (H3N2); Influenza A (H3N2)) was greater than 125 µg/mL and the “MCC minimum concentration altering normal cell morphology” value (Influenza A (H3N2); Influenza A (H3N2) assay) was greater than 200 μg/mL.

For “5′-gtggtgggtgggtgggt-3′ (GTGGTGGGTGGGTGGGT; phosphorothioate termini, further chemistry not given here) [T30177, pPT version of parent compound I100-15, 17 mer]”, the IC50 virus-induced cytopathogenicity (Coxsackie virus (B4); Coxsackie virus (B4)) was greater than 200 µg/mL, the “MCC minimum concentration altering normal cell morphology” value (Coxsackie virus (B4); Coxsackie virus (B4) assay) was “≧400 μg/mL” and the IC50 virus-induced cytopathogenicity (HSV-2 (G); HSV-2 (G)) was greater than 200 µg/mL. For the same compound, the “MCC minimum concentration altering normal cell morphology” value (HSV-2 (G); HSV-2 (G) assay) was 400 μg/mL, the “metabolites (n−1, n−2) in plasma” value [2] was “No metabolites” and the IC50 (HIV-2 (ROD, EHO); HIV-2EHO) was 5.98 ± 1.05 µM. The IC50 (HIV-2 (ROD, EHO); HIV-2ROD) was 27.5 ± 11.6 µM, the IC50 ([3]; depending upon the template, read-out: 50% inhibitory value, viral reverse transcriptase) was 1 to 10 µM and the IC50 ([3]; template gapped duplex DNA, duplicate experiments, read-out: IC50 recombinant HIV-1 RT) was > 5 µM and 8 µM and 10 µM. For the same compound, the CC50 (U937) was greater than 100 µM, the TC25 (U937) was greater than 100 µM and the TC95 (U937) was greater than 100 µM. For the same compound, the CC50 (CEM-SS) was 92 ± 3 µM, the TC25 (CEM-SS) was 50.8 ± 3.2 µM and the TC95 (CEM-SS) was greater than 100 µM. It also gave a CC50 (AA5) of 94.2 ± 3.1 µM, a TC25 (AA5) of 45.66 ± 2.0 µM and a TC95 (AA5) greater than 100 µM. For the same compound, the CC50 (CEMx174) was 50 ± 5.2 µM, the TC25 (CEMx174) was 10 ± 2.5 µM and the TC95 (CEMx174) was greater than 100 µM. It also gave a CC50 (MT4) of 70 ± 7.1 µM, a TC25 (MT4) of 34 ± 4.0 µM and a TC95 (MT4) greater than 100 µM. For the same compound, the CC50 (MT2) was 61.2 ± 5.5 µM, the TC25 (MT2) was 27 ± 3.5 µM and the TC95 (MT2) was greater than 100 µM. The IC50 virus-induced cytopathogenicity (Vaccinia virus; Vaccinia virus) was greater than 200 µg/mL, the “MCC minimum concentration altering normal cell morphology” value (Vaccinia virus; Vaccinia virus assay) was 400 μg/mL and the Tm ([4]; 1 mM KCl) was 53 °C. The Tm ([4]; 10 mM KCl, calculated from linear fit) was 70* ° C and the Tm ([4]; 180 mM KCl, calculated from linear fit) was 92* ° C.

From US6355785B1, “Guanosine-rich oligonucleotide integrase inhibitors” (Aronex Pharmaceuticals, Inc., priority 1993, dated 2002)
